These results are taken from paper PMC8138313, “Identification, Selection and Immune Assessment of Liver Stage CD8 T Cell Epitopes From Plasmodium falciparum” (Frontiers in Immunology, 2021).

Where a SMILES comes first, the peptide text is derived from it. Some results are limits rather than exact numbers.

The term IC50 denotes the concentration that inhibits the measured activity by half. Higher therefore signals lower potency.

One assay has as its target HLA A*0201 (Homo sapiens, UniProt P04439, D140Y/D185E/D98H/E176V/E277Q/G131W/G231S/I119V/I121R/I166T/I218V/L300P/L318F/N151K/N90K/P208A/P217A/Q86G/Q94H/R138H/R169H/T345S). In words: HLA class I binding assay (cell-free competition, fluorescence polarization). On the technique in general: In fluorescence polarisation assays a small probe gives low polarisation when free and higher when bound to something large.
`CC(C)C[C@H](NC(=O)[C@H](CC(C)C)NC(=O)[C@H](CC(N)=O)NC(=O)[C@H](CC(C)C)NC(=O)[C@H](CC(C)C)NC(=O)[C@@H](N)Cc1ccccc1)C(=O)N[C@@H](CC(N)=O)C(=O)N[C@@H](CCC(=O)O)C(=O)N[C@@H](Cc1c[nH]cn1)C(=O)N[C@H](C(=O)O)C(C)C` (H-FLLNLLNEHV-OH) displayed an IC50 of 1.68 µM. That is a single-digit micromolar value.
`CC[C@H](C)[C@H](NC(=O)CN)C(=O)N[C@@H](C)C(=O)N[C@@H](CC(N)=O)C(=O)N[C@@H](CC(=O)O)C(=O)N[C@@H](CC(C)C)C(=O)N[C@@H](CO)C(=O)N[C@H](C(=O)N[C@@H](CC(C)C)C(=O)O)[C@@H](C)O` (H-GIANDLSTL-OH): the IC50 was 5.73 µM. This IC50 lies about 3.4-fold higher than the previous one.
On the same count and under the same terms, with `CC[C@H](C)[C@H](N)C(=O)N[C@@H](CC(C)C)C(=O)N[C@@H](Cc1ccc(O)cc1)C(=O)N[C@@H](CCCCN)C(=O)N[C@@H](CC(N)=O)C(=O)N[C@H](C(=O)N[C@@H](CC(=O)O)C(=O)N[C@@H](CS)C(=O)N[C@H](C(=O)O)C(C)C)[C@@H](C)CC` (H-ILYKNIDCV-OH) the figure was 1.4 µM; with `CC[C@H](C)[C@H](NC(=O)[C@H](CC(=O)O)NC(=O)[C@@H](NC(=O)[C@H](CO)NC(=O)[C@@H](NC(=O)[C@@H](N)CC(C)C)[C@@H](C)CC)[C@@H](C)O)C(=O)N[C@H](C(=O)N[C@@H](Cc1ccccc1)C(=O)N[C@@H](CC(C)C)C(=O)O)[C@@H](C)CC` (H-LISTDIIFL-OH), 0.614 µM; with `CC(C)C[C@H](NC(=O)[C@H](CC(N)=O)NC(=O)[C@H](C)NC(=O)[C@H](C)NC(=O)[C@H](CCCCN)NC(=O)[C@H](CCC(N)=O)NC(=O)[C@H](Cc1ccccc1)NC(=O)[C@H](CC(C)C)NC(=O)[C@@H](N)CC(C)C)C(=O)O` (H-LLFQKAANL-OH), 1.88 µM.
`CC(C)C[C@H](NC(=O)[C@@H](N)CC(N)=O)C(=O)N[C@@H](Cc1ccccc1)C(=O)N[C@@H](CCC(=O)O)C(=O)N[C@@H](Cc1c[nH]c2ccccc12)C(=O)N[C@@H](CO)C(=O)N[C@@H](CCCCN)C(=O)N[C@H](C(=O)N[C@H](C(=O)O)C(C)C)[C@@H](C)O` (H-NLFEWSKTV-OH) showed an IC50 of 1.62 µM.
Turning to `CC[C@H](C)[C@H](NC(=O)[C@H](CO)NC(=O)[C@H](CCCCN)NC(=O)[C@H](CC(N)=O)NC(=O)[C@H](CCC(N)=O)NC(=O)[C@H](Cc1ccccc1)NC(=O)[C@H](Cc1ccccc1)NC(=O)[C@H](CC(C)C)NC(=O)[C@@H](N)CC(N)=O)C(=O)O` (H-NLFFQNKSI-OH; N-terminus assumed), the IC50 is above 1000 µM.
In the case of `CC[C@H](C)[C@H](NC(=O)[C@H](CC(N)=O)NC(=O)[C@H](CCC(N)=O)NC(=O)[C@H](CCC(N)=O)NC(=O)[C@H](Cc1ccc(O)cc1)NC(=O)[C@H](CCSC)NC(=O)[C@@H](N)CC(N)=O)C(=O)N1CCC[C@H]1C(=O)N[C@@H](CC(C)C)C(=O)O` (H-NMYQQNIPL-OH), the IC50 turned out to be 331 µM.
On the same count and under the same terms, with `CC[C@H](C)[C@H](NC(=O)[C@@H](N)CO)C(=O)N[C@@H](CO)C(=O)N[C@@H](CC(=O)O)C(=O)N[C@@H](Cc1ccc(O)cc1)C(=O)N[C@H](C(=O)N[C@@H](CCCCN)C(=O)N[C@@H](CO)C(=O)N[C@@H](CC(C)C)C(=O)O)[C@@H](C)O` (H-SISDYTKSL-OH) the figure was 352 µM; with `CC[C@H](C)[C@H](NC(=O)[C@H](CC(N)=O)NC(=O)[C@@H](NC(=O)[C@H](CCSC)NC(=O)[C@@H](N)CO)[C@@H](C)O)C(=O)N1CCC[C@H]1C(=O)N[C@@H](CCSC)C(=O)N[C@@H](CC(N)=O)C(=O)N[C@H](C(=O)O)C(C)C` (H-SMTNIPMNV-OH), 0.244 µM; with `CC[C@H](C)[C@H](NC(=O)CNC(=O)[C@H](Cc1ccc(O)cc1)NC(=O)[C@H](Cc1c[nH]cn1)NC(=O)[C@@H](NC(=O)[C@@H](N)C(C)C)[C@@H](C)CC)C(=O)N[C@@H](CC(N)=O)C(=O)N1CCC[C@H]1C(=O)N[C@H](C(=O)O)C(C)C` (H-VIHYGINPV-OH), 1.7 µM.
Still for that read-out and setting: with `CC[C@H](C)[C@H](NC(=O)[C@H](CC(=O)O)NC(=O)[C@H](CC(N)=O)NC(=O)[C@H](CC(N)=O)NC(=O)[C@H](CC(C)C)NC(=O)[C@@H](N)Cc1c[nH]c2ccccc12)C(=O)N[C@@H](Cc1ccc(O)cc1)C(=O)N[C@@H](CC(N)=O)C(=O)N[C@H](C(=O)O)C(C)C` (H-WLNNDIYNV-OH) the figure was 0.16 µM; with `CC[C@H](C)[C@H](NC(=O)[C@@H](NC(=O)[C@@H](NC(=O)[C@H](CCCCN)NC(=O)[C@H](CC(N)=O)NC(=O)[C@H](CCCCN)NC(=O)[C@H](CC(N)=O)NC(=O)[C@@H](NC(=O)[C@@H](NC(=O)[C@@H](N)Cc1ccc(O)cc1)[C@@H](C)CC)[C@@H](C)O)C(C)C)[C@@H](C)O)C(=O)O` (H-YITNKNKVTI-OH; N-terminus assumed), above 1000 µM.

A further assay deals with HLA A*0301 (Homo sapiens, UniProt P04439). The assay is described as above.
The compound `CC(C)C[C@H](NC(=O)[C@H](C)N)C(=O)N[C@@H](CC(N)=O)C(=O)N[C@@H](CC(C)C)C(=O)N[C@@H](Cc1ccccc1)C(=O)N[C@@H](Cc1ccccc1)C(=O)N[C@@H](CCC(N)=O)C(=O)N[C@@H](CC(N)=O)C(=O)N[C@@H](CCCCN)C(=O)O` (H-ALNLFFQNK-OH) registered an IC50 of 1.14 µM.
Same read-out and setting: with `CC(C)C[C@H](NC(=O)[C@H](Cc1ccccc1)NC(=O)[C@H](CO)NC(=O)[C@H](Cc1ccccc1)NC(=O)[C@H](CS)NC(=O)[C@@H](N)Cc1ccccc1)C(=O)N[C@@H](CCCCN)C(=O)N[C@@H](CO)C(=O)N[C@@H](CO)C(=O)N[C@@H](CCCCN)C(=O)O` (H-FCFSFLKSSK-OH) the figure was 9.21 µM; with `CSCC[C@H](NC(=O)[C@@H](NC(=O)[C@H](CC(=O)O)NC(=O)[C@H](Cc1c[nH]cn1)NC(=O)[C@@H]1CCCN1C(=O)[C@H](CO)NC(=O)[C@H](CC(C)C)NC(=O)CN)[C@@H](C)O)C(=O)N[C@@H](CCC(N)=O)C(=O)N[C@@H](CCCCN)C(=O)O` (H-GLSPHDTMQK-OH), 1.1 µM; with `CC[C@H](C)[C@H](N)C(=O)N[C@@H](CC(C)C)C(=O)N[C@H](C(=O)N[C@@H](CO)C(=O)N[C@@H](CCCNC(=N)N)C(=O)N[C@@H](CC(C)C)C(=O)N[C@H](C(=O)N[C@@H](CC(C)C)C(=O)N[C@@H](CCCCN)C(=O)O)[C@@H](C)O)[C@@H](C)CC` (H-ILISRLTLK-OH), 0.22 µM.
The same measure, in the same setting: with `CC[C@H](C)[C@H](NC(=O)[C@H](Cc1ccccc1)NC(=O)[C@H](CO)NC(=O)[C@H](CO)NC(=O)[C@@H](NC(=O)[C@@H](N)CCCCN)[C@@H](C)CC)C(=O)N[C@@H](CC(N)=O)C(=O)N[C@@H](CCC(N)=O)C(=O)N[C@@H](CCCNC(=N)N)C(=O)N[C@@H](CCCCN)C(=O)O` (H-KISSFINQRK-OH) the figure was 0.316 µM.
On the same count and under the same terms, with `CSCC[C@H](NC(=O)[C@H](CC(N)=O)NC(=O)[C@H](Cc1ccc(O)cc1)NC(=O)[C@H](CC(N)=O)NC(=O)[C@H](CC(=O)O)NC(=O)[C@H](Cc1ccc(O)cc1)NC(=O)[C@H](CC(N)=O)NC(=O)[C@@H](N)CCCCN)C(=O)N[C@@H](CCCCN)C(=O)O` (H-KNYDNYNMK-OH) the figure was 2.51 µM.
On to `CC[C@H](C)[C@H](NC(=O)[C@H](CCSC)NC(=O)[C@H](CCCCN)NC(=O)[C@H](CCSC)NC(=O)[C@@H](NC(=O)[C@@H](N)CC(C)C)[C@@H](C)O)C(=O)N[C@@H](CC(N)=O)C(=O)N[C@@H](CC(N)=O)C(=O)N[C@@H](CCCCN)C(=O)O` (H-LTMKMINNK-OH), for which the IC50 was determined as 0.472 µM.
The compound `CSCC[C@H](N)C(=O)N[C@@H](CC(=O)O)C(=O)N[C@@H](Cc1ccccc1)C(=O)N1CCC[C@H]1C(=O)N[C@@H](CCCCN)C(=O)N[C@@H](CC(C)C)C(=O)N[C@@H](CC(C)C)C(=O)N[C@@H](CC(N)=O)C(=O)N[C@@H](CCCCN)C(=O)O` (H-MDFPKLLNK-OH) came in with an IC50 of 2.08 µM. This IC50 is about 4.4-fold higher than that of the compound before.
The compound `CC(C)C[C@H](NC(=O)[C@H](CC(N)=O)NC(=O)[C@H](CC(C)C)NC(=O)[C@@H](N)CC(N)=O)C(=O)N[C@@H](CS)C(=O)NCC(=O)N[C@@H](CCCCN)C(=O)N[C@@H](Cc1ccc(O)cc1)C(=O)N[C@H](C(=O)N[C@@H](CCCCN)C(=O)O)[C@@H](C)O` (H-NLNLCGKYTK-OH; N-terminus assumed) returned an IC50 above 1000 µM.
Still for that read-out and setting: with `CC[C@H](C)[C@H](NC(=O)[C@@H]1CCCN1C(=O)[C@H](Cc1ccc(O)cc1)NC(=O)[C@H](CC(=O)O)NC(=O)[C@H](Cc1ccccc1)NC(=O)[C@@H](NC(=O)[C@@H](N)CCC(N)=O)C(C)C)C(=O)N[C@@H](CCC(=O)O)C(=O)N[C@@H](CCCCN)C(=O)O` (H-QVFDYPIEK-OH) the figure was 1.57 µM; with `CC[C@H](C)[C@H](NC(=O)[C@@H](N)CCCNC(=N)N)C(=O)N[C@@H](CO)C(=O)NCC(=O)N[C@@H](Cc1c[nH]c2ccccc12)C(=O)N[C@@H](CCCCN)C(=O)NCC(=O)N[C@@H](CC(=O)O)C(=O)N[C@@H](CC(N)=O)C(=O)N[C@@H](CCCCN)C(=O)O` (H-RISGWKGDNK-OH), 0.548 µM.
On the same count and under the same terms, with `CC[C@H](C)[C@H](NC(=O)[C@H](CO)NC(=O)[C@H](CCCNC(=N)N)NC(=O)[C@H](CC(N)=O)NC(=O)[C@H](CC(N)=O)NC(=O)[C@H](CC(C)C)NC(=O)[C@@H](N)CCCNC(=N)N)C(=O)N[C@@H](Cc1ccc(O)cc1)C(=O)N[C@@H](CCCCN)C(=O)O` (H-RLNNRSIYK-OH) the figure was 0.224 µM; with `CC(C)C[C@H](NC(=O)[C@H](Cc1ccccc1)NC(=O)[C@@H](NC(=O)[C@H](CCCCN)NC(=O)[C@H](CCCCN)NC(=O)[C@H](CO)NC(=O)[C@@H](N)CCCNC(=N)N)[C@@H](C)O)C(=O)N[C@H](C(=O)N[C@@H](CCCCN)C(=O)O)C(C)C` (H-RSKKTFLVK-OH), 0.409 µM.
The same measure, in the same setting: with `CC[C@H](C)[C@H](NC(=O)[C@H](CO)NC(=O)[C@H](Cc1ccccc1)NC(=O)[C@@H](NC(=O)[C@H](CO)NC(=O)CNC(=O)[C@H](CO)NC(=O)[C@H](CO)NC(=O)[C@@H](N)CCCNC(=N)N)[C@@H](C)O)C(=O)N[C@@H](CCCCN)C(=O)O` (H-RSSGSTFSIK-OH) the figure was 0.326 µM; with `CSCC[C@H](NC(=O)[C@H](CC(N)=O)NC(=O)[C@H](CCC(N)=O)NC(=O)[C@H](CC(N)=O)NC(=O)[C@H](C)NC(=O)[C@H](CCSC)NC(=O)[C@@H](N)[C@@H](C)O)C(=O)N[C@@H](CC(N)=O)C(=O)N[C@@H](Cc1ccc(O)cc1)C(=O)N[C@@H](CCCCN)C(=O)O` (H-TMANQNMNYK-OH), 0.209 µM.
